Values quoted from earlier work in patent US20090143313A1 (priority 2004, published 2009).

How the values were obtained:
[1] = tested on: spleen lymphocytes
[2] = tested on: bone marrow cells
[3] = tested on: 5-FU-immune-suppressed animals; conditions: in vivo
[4] = tested on: immunization with sheep red blood cells; conditions: in vivo
[5] = tested on: tuberculosis; conditions: human, in vivo

## N[C@H](CCC(=O)N[C@@H](Cc1c[nH]c2ccccc12)C(=O)O)C(=O)O [SCV-07, γ-D-glutamyl-L-tryptophan]
[1]
  Con-A-induced interleukin-2 (IL-2) production and IL-2 receptor expression by spleen lymphocytes: increases
[2]
  Expression of Thy-1.2 on bone marrow cells: stimulates
[3]
  Immunostimulatory effect: strong immunostimulatory effect
[4]
  Immunostimulatory effect: strong immunostimulatory effect
[5]
  Cavity healing and symptoms of tuberculosis: positive effect
  Incidence of mycobacteria-negative sputum cultures: increased
